Eleven compounds from ChEMBL document CHEMBL1671642 (2009) can be followed below.

Converted amounts (≈) assume the structure as drawn.

Common to all, as to type: functional
Test [1] relates to Escherichia coli. As to the kind of experiment: Antimicrobial activity against Escherichia coli K-12 3-AG300 harboring AcrB-F628F mutant gene.
The subject of test [2] is Escherichia coli. As to the kind of experiment: Antimicrobial activity against Escherichia coli K-12 3-AG300 harboring acrB::rpsLneo mutant gene.
Test [3] relates to Escherichia coli. As to the kind of experiment: Antimicrobial activity against Escherichia coli K-12 3-AG300 harboring AcrB-615-628MexB mutant gene.
The test system of test [4] is Escherichia coli. As to the kind of experiment: Ratio of MIC for Escherichia coli K-12 3-AG300 harboring acrB::rpsLneo mutant gene to MIC for Escherichia coli K-12 3-AG300.
Test [5] has as its system Escherichia coli. In words: Antimicrobial activity against Escherichia coli K-12 3-AG300 harboring AcrB-615-628MexB-N616 mutant gene.
The test system of test [6] is Escherichia coli. As to the kind of experiment: Antimicrobial activity against Escherichia coli K-12 3-AG300 harboring AcrB-615-628MexB-M626I mutant gene.
The subject of test [7] is Escherichia coli. As to the kind of experiment: Antimicrobial activity against Escherichia coli K-12 3-AG300 harboring AcrB-I626M mutant gene.
Test [8] concerns Escherichia coli. As to the kind of experiment: Antimicrobial activity against Escherichia coli K-12 3-AG300 harboring AcrB-G616N mutant gene.
Test [9] relates to Escherichia coli. In words: Ratio of MIC for Escherichia coli K-12 3-AG300 harboring AcrB-615-628MexB mutant gene to MIC for Escherichia coli K-12 3-AG300.
The subject of test [10] is Escherichia coli. As to the kind of experiment: Ratio of MIC for Escherichia coli K-12 3-AG300 harboring AcrB-615-628MexB-M626I mutant gene to MIC for Escherichia coli K-12 3-AG300.
For test [11], the system named is Escherichia coli. As to the kind of experiment: Ratio of MIC for Escherichia coli K-12 3-AG300 harboring AcrB-G616N mutant gene to MIC for Escherichia coli K-12 3-AG300.
For test [12], the system named is Escherichia coli. In words: Antimicrobial activity against Escherichia coli K-12 3-AG300 harboring AcrB-615-628MexB-S623N mutant gene.
Test [13] relates to Escherichia coli. In words: Antimicrobial activity against Escherichia coli K-12 3-AG300 harboring AcrB-N623S-Q624S mutant gene.

For the compound `CCOc1ccc(-c2nc3cc(-c4nc5cc(N6CCN(C)CC6)ccc5[nH]4)ccc3[nH]2)cc1`, the MIC came to 4 µg/mL (≈ 8.84 µM) against Escherichia coli [1], 0.125 µg/mL (≈ 0.276 µM) with Escherichia coli [2] and 4 µg/mL (≈ 8.84 µM) in the test with Escherichia coli [3]. Further, the Ratio with Escherichia coli [4] is listed as 4.

`CC[C@H]1OC(=O)[C@H](C)[C@@H](O[C@H]2C[C@@](C)(OC)[C@@H](O)[C@H](C)O2)[C@H](C)[C@@H](O[C@@H]2O[C@H](C)C[C@H](N(C)C)[C@H]2O)[C@](C)(O)C[C@@H](C)CN(C)[C@H](C)[C@@H](O)[C@]1(C)O` [AZITHROMYCIN]: the MIC in the test on Escherichia coli [1] is 64 µg/mL (≈ 85.4 µM); with Escherichia coli [2], 0.5 µg/mL (≈ 0.668 µM); in the test with Escherichia coli [3], 16 µg/mL (≈ 21.4 µM); against Escherichia coli [5], 64 µg/mL (≈ 85.4 µM); against Escherichia coli [6] it was 8 µg/mL (≈ 10.7 µM); in the test with Escherichia coli [7] it was 32 µg/mL (≈ 42.7 µM). Further, the minimal inhibitory concentration (MIC) against Escherichia coli [8] and against Escherichia coli [12] was 16 µg/mL (≈ 21.4 µM) each time. For the same compound, the Ratio in the test with Escherichia coli [4], in the test on Escherichia coli [9], in the test on Escherichia coli [10] and in the test with Escherichia coli [11] was 4 each time.

As to `CCBr` [BROMOETHANE], the MIC against Escherichia coli [1] is 512 µg/mL (≈ 4700 µM); in the test with Escherichia coli [2] it was 16 µg/mL (≈ 147 µM); in the test on Escherichia coli [3] it was 512 µg/mL (≈ 4700 µM); against Escherichia coli [5], 512 µg/mL (≈ 4700 µM); with Escherichia coli [6] it was 512 µg/mL (≈ 4700 µM); in the test with Escherichia coli [7], 1020 µg/mL (≈ 9400 µM). In addition, the minimal inhibitory concentration (MIC) against Escherichia coli [8] is 1020 µg/mL (≈ 9400 µM); in the test on Escherichia coli [13], 1020 µg/mL (≈ 9400 µM); with Escherichia coli [12], 512 µg/mL (≈ 4700 µM). The Ratio in the test with Escherichia coli [4] was determined as 4.

For `O=C(N[C@H](CO)[C@H](O)c1ccc([N+](=O)[O-])cc1)C(Cl)Cl` [CHLORAMPHENICOL], the MIC in the test with Escherichia coli [1] was 8 µg/mL (≈ 24.8 µM); with Escherichia coli [2], 1 µg/mL (≈ 3.09 µM); against Escherichia coli [5], 8 µg/mL (≈ 24.8 µM); against Escherichia coli [6], 8 µg/mL (≈ 24.8 µM); with Escherichia coli [7], 8 µg/mL (≈ 24.8 µM); against Escherichia coli [8] it was 8 µg/mL (≈ 24.8 µM). The MIC with Escherichia coli [13] is 8 µg/mL (≈ 24.8 µM).

For the compound `CC[C@H]1OC(=O)[C@H](C)[C@@H](O[C@H]2C[C@@](C)(OC)[C@@H](O)[C@H](C)O2)[C@H](C)[C@@H](O[C@@H]2O[C@H](C)C[C@H](N(C)C)[C@H]2O)[C@](C)(OC)C[C@@H](C)C(=O)[C@H](C)[C@@H](O)[C@]1(C)O` [CLARITHROMYCIN], the MIC with Escherichia coli [1] was 512 µg/mL (≈ 685 µM); in the test on Escherichia coli [2], 4 µg/mL (≈ 5.35 µM); with Escherichia coli [3], 64 µg/mL (≈ 85.6 µM); in the test with Escherichia coli [5] it was 512 µg/mL (≈ 685 µM); against Escherichia coli [6] it was 64 µg/mL (≈ 85.6 µM); with Escherichia coli [7], 512 µg/mL (≈ 685 µM). Also, the MIC against Escherichia coli [8] was found to be 128 µg/mL (≈ 171 µM); in the test on Escherichia coli [13], 512 µg/mL (≈ 685 µM); with Escherichia coli [12] it was 128 µg/mL (≈ 171 µM). Also, the Ratio in the test on Escherichia coli [4], in the test on Escherichia coli [9], in the test on Escherichia coli [10] and with Escherichia coli [11] was 4 throughout.

On to `CCC[C@@H]1C[C@@H](C(=O)N[C@@H]([C@H]2O[C@H](SC)[C@H](O)[C@@H](O)[C@H]2O)[C@H](C)Cl)N(C)C1` [CLINDAMYCIN], for which the MIC with Escherichia coli [1] worked out at 256 µg/mL (≈ 602 µM); against Escherichia coli [2] it was 4 µg/mL (≈ 9.41 µM); in the test with Escherichia coli [3], 256 µg/mL (≈ 602 µM). Further, the Ratio with Escherichia coli [4] is given as 4.

Regarding `CC[C@H]1OC(=O)[C@H](C)[C@@H](O[C@H]2C[C@@](C)(OC)[C@@H](O)[C@H](C)O2)[C@H](C)[C@@H](O[C@@H]2O[C@H](C)C[C@H](N(C)C)[C@H]2O)[C@](C)(O)C[C@@H](C)C(=O)[C@H](C)[C@@H](O)[C@]1(C)O` [ERYTHROMYCIN], the MIC came out at 512 µg/mL (≈ 698 µM) in the test on Escherichia coli [1]; 4 µg/mL (≈ 5.45 µM) against Escherichia coli [2]; 128 µg/mL (≈ 174 µM) against Escherichia coli [3]; 256 µg/mL (≈ 349 µM) with Escherichia coli [5]; 128 µg/mL (≈ 174 µM) against Escherichia coli [6]; 512 µg/mL (≈ 698 µM) in the test with Escherichia coli [7]. For the same compound, the minimum inhibitory concentration (MIC) was 128 µg/mL (≈ 174 µM) with Escherichia coli [8] and 256 µg/mL (≈ 349 µM) against Escherichia coli [12]. Besides, the Ratio with Escherichia coli [4], in the test with Escherichia coli [9], in the test with Escherichia coli [10] and with Escherichia coli [11] was 4 in each case.

Consider `CC(=O)NC[C@H]1CN(c2ccc(N3CCOCC3)c(F)c2)C(=O)O1` [LINEZOLID], for which the minimal inhibitory concentration (MIC) with Escherichia coli [1] was determined as 512 µg/mL (≈ 1520 µM); in the test on Escherichia coli [2], 16 µg/mL (≈ 47.4 µM); in the test on Escherichia coli [3] it was 1020 µg/mL (≈ 3040 µM); in the test with Escherichia coli [5] it was 1020 µg/mL (≈ 3040 µM); against Escherichia coli [6], 1020 µg/mL (≈ 3040 µM); against Escherichia coli [7], 512 µg/mL (≈ 1520 µM). Moreover, the MIC against Escherichia coli [8] was determined as 512 µg/mL (≈ 1520 µM); with Escherichia coli [13], 512 µg/mL (≈ 1520 µM); with Escherichia coli [12] it was 1020 µg/mL (≈ 3040 µM). Also, the Ratio with Escherichia coli [4] is 4.

Turning to `CN(C)c1ccc(O)c2c1C[C@H]1C[C@H]3[C@H](N(C)C)C(O)=C(C(N)=O)C(=O)[C@@]3(O)C(O)=C1C2=O` [MINOCYCLINE], the MIC in the test on Escherichia coli [1] stood at 4 µg/mL (≈ 8.74 µM); with Escherichia coli [2] it was 0.125 µg/mL (≈ 0.273 µM); against Escherichia coli [3], 2 µg/mL (≈ 4.37 µM); with Escherichia coli [5], 2 µg/mL (≈ 4.37 µM); with Escherichia coli [6], 4 µg/mL (≈ 8.74 µM); against Escherichia coli [7], 4 µg/mL (≈ 8.74 µM). Also, the MIC in the test with Escherichia coli [8] turned out to be 4 µg/mL (≈ 8.74 µM); in the test with Escherichia coli [13], 4 µg/mL (≈ 8.74 µM); in the test on Escherichia coli [12], 2 µg/mL (≈ 4.37 µM). In the test with Escherichia coli [4], the Ratio is given as 4.

`CO[C@@H]1[C@@H](OC(N)=O)[C@@H](O)[C@H](Oc2ccc3c(O)c(NC(=O)c4ccc(O)c(CC=C(C)C)c4)c(=O)oc3c2C)OC1(C)C` [NOVOBIOCIN]: the minimum inhibitory concentration (MIC) with Escherichia coli [1] was found to be 512 µg/mL (≈ 836 µM); against Escherichia coli [2], 4 µg/mL (≈ 6.53 µM); against Escherichia coli [3], 512 µg/mL (≈ 836 µM); in the test on Escherichia coli [5] it was 512 µg/mL (≈ 836 µM); in the test on Escherichia coli [6] it was 512 µg/mL (≈ 836 µM); in the test on Escherichia coli [7] it was 512 µg/mL (≈ 836 µM). Besides, the results for the minimal inhibitory concentration (MIC) against Escherichia coli [8], with Escherichia coli [13] and against Escherichia coli [12] were 512 µg/mL (≈ 836 µM), 512 µg/mL (≈ 836 µM) and 1020 µg/mL (≈ 1670 µM), respectively. In the test on Escherichia coli [4], the Ratio is listed as 4.

For the compound `Cc1onc(-c2ccccc2)c1C(=O)N[C@@H]1C(=O)N2[C@@H]1SC(C)(C)[C@@H]2C(=O)O` [OXACILLIN], the MIC amounted to 512 µg/mL (≈ 1280 µM) against Escherichia coli [1]; 0.5 µg/mL (≈ 1.25 µM) in the test with Escherichia coli [2]; 256 µg/mL (≈ 638 µM) against Escherichia coli [3]; 256 µg/mL (≈ 638 µM) in the test on Escherichia coli [5]; 256 µg/mL (≈ 638 µM) against Escherichia coli [6]; 512 µg/mL (≈ 1280 µM) in the test with Escherichia coli [7]. The figures for the MIC in the test with Escherichia coli [8], with Escherichia coli [13] and with Escherichia coli [12] were 256 µg/mL (≈ 638 µM), 256 µg/mL (≈ 638 µM) and 512 µg/mL (≈ 1280 µM), respectively. In addition, the Ratio with Escherichia coli [4] turned out to be 4.

In general, MIC refers to the lowest concentration that inhibits growth of the organism.
